Data on five molecules can be found in PubChem BioAssay AID1919017 (Molecular Pharmacology Branch, DTP, NCI, 2023).

The structures appear in SMILES notation. Several values for one entry are separate records, joined by “and”; a condition that tells them apart may be missing. Identical values can stand only once.

For the test, the system named is SW1271 complex spheroids with HUVEC/MSC, growth, % test/control. The test can be described thus: Anticancer human tumor SW1271 cell line growth inhibition [AhR].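 On all read-outs here: spheroids exposed to agents for 7 days before readout.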 Particulars: for viability, T/C: stronger effect = lower value. In outline:
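Spheroids combined tumor cells with HUVEC endothelial cells and human MSCs as stroma. AhR antagonists were paired with standard or investigational drugs, each dosed in half-log steps down from near clinical Cmax, or from 10 microM where Cmax was unknown.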

[1] abbreviates: curve of first compound, second compound 0.1 µM.
Where [2] appears, read: curve of first compound, second compound 0.316 µM.
The mark [3] stands for this setting: curve of first compound, second compound 1 µM.
Setting [4] is: curve of first compound, second compound 3.16 µM.
The mark [5] stands for this setting: curve of first compound, second compound 10 µM.
Where [6] appears, read: second compound 0.1 µM, first compound 0.0316 µM.
The mark [7] stands for this setting: second compound 0.1 µM, first compound 0.1 µM.
[8] abbreviates: second compound 0.1 µM, first compound 0.316 µM.
[9] abbreviates: second compound 0.1 µM, first compound 1 µM.
Setting [10] is: second compound 0.1 µM, first compound 3.16 µM.
Where [11] appears, read: second compound 0.1 µM, first compound 10 µM.
The mark [12] stands for this setting: second compound 0.316 µM, first compound 0.0316 µM.
Where [13] appears, read: second compound 0.316 µM, first compound 0.1 µM.
Where [14] appears, read: second compound 0.316 µM, first compound 0.316 µM.
The mark [15] stands for this setting: second compound 0.316 µM, first compound 1 µM.
[16] abbreviates: second compound 0.316 µM, first compound 3.16 µM.
Where [17] appears, read: second compound 0.316 µM, first compound 10 µM.
Setting [18] is: second compound 1 µM, first compound 0.0316 µM.
[19] abbreviates: second compound 1 µM, first compound 0.1 µM.
Where [20] appears, read: second compound 1 µM, first compound 0.316 µM.
Where [21] appears, read: second compound 1 µM, first compound 1 µM.
Where [22] appears, read: second compound 1 µM, first compound 3.16 µM.
Where [23] appears, read: second compound 1 µM, first compound 10 µM.
The mark [24] stands for this setting: second compound 3.16 µM, first compound 0.0316 µM.
Setting [25] is: second compound 3.16 µM, first compound 0.1 µM.
[26] abbreviates: second compound 3.16 µM, first compound 0.316 µM.
Where [27] appears, read: second compound 3.16 µM, first compound 1 µM.
[28] abbreviates: second compound 3.16 µM, first compound 3.16 µM.
Where [29] appears, read: second compound 3.16 µM, first compound 10 µM.
[30] abbreviates: second compound 10 µM, first compound 0.0316 µM.
Where [31] appears, read: second compound 10 µM, first compound 0.1 µM.
Where [32] appears, read: second compound 10 µM, first compound 0.316 µM.
Setting [33] is: second compound 10 µM, first compound 1 µM.
[34] abbreviates: second compound 10 µM, first compound 3.16 µM.
Setting [35] is: second compound 10 µM, first compound 10 µM.

A word on the IC50: it is the point on the concentration scale where inhibition reaches its midpoint. Broadly, the viability, T/C is the result in the treated group divided by that in the control group, in per cent. `O=C(C=Cn1cnc(-c2cc(C(F)(F)F)cc(C(F)(F)F)c2)n1)NNc1cnccn1` + CC(CO)NC(=O)c1cc(-c2ccc(Cl)cc2)nn(-c2cnn(C)c2)c1=O: the IC50 under setting [1] came out at 996 nM; the IC50 under setting [2] turned out to be 911 nM; the half-inhibitory concentration (IC50) under setting [3] came to 625 nM; the IC50 under setting [4] came to 450 nM; the IC50 under setting [5] came out at 756 nM. In addition, the viability, T/C is 108% (second compound 0.1 µM, first compound 0.00949 µM); 76.7% (second compound 0.1 µM, first compound 0.03 µM); 93.1% (second compound 0.1 µM, first compound 0.0949 µM); 70.5% (second compound 0.1 µM, first compound 0.3 µM); 45.6% (second compound 0.1 µM, first compound 0.949 µM); 34.3% (second compound 0.1 µM, first compound 3 µM). The viability, T/C is, setting by setting: (second compound 0.316 µM, first compound 0.00949 µM) 74.4%; (second compound 0.316 µM, first compound 0.03 µM) 79.2%; (second compound 0.316 µM, first compound 0.0949 µM) 72.3%; (second compound 0.316 µM, first compound 0.3 µM) 63.7%; (second compound 0.316 µM, first compound 0.949 µM) 50%; (second compound 0.316 µM, first compound 3 µM) 31.7%. The viability, T/C reads like this: (second compound 1 µM, first compound 0.00949 µM) 73.9%; (second compound 1 µM, first compound 0.03 µM) 86.7%; (second compound 1 µM, first compound 0.0949 µM) 70.8%; (second compound 1 µM, first compound 0.3 µM) 60.4%; (second compound 1 µM, first compound 0.949 µM) 44%; (second compound 1 µM, first compound 3 µM) 40.5%. In addition, the viability, T/C is, setting by setting: (second compound 3.16 µM, first compound 0.00949 µM) 85.2%; (second compound 3.16 µM, first compound 0.03 µM) 75.3%; (second compound 3.16 µM, first compound 0.0949 µM) 87.3%; (second compound 3.16 µM, first compound 0.3 µM) 57.4%; (second compound 3.16 µM, first compound 0.949 µM) 34.8%; (second compound 3.16 µM, first compound 3 µM) 37.8%. The viability, T/C (second compound 10 µM, first compound 0.00949 µM) was 79%; the viability, T/C (second compound 10 µM, first compound 0.03 µM) was 71.7%; the viability, T/C (second compound 10 µM, first compound 0.0949 µM) is 68.8%; the viability, T/C (second compound 10 µM, first compound 0.3 µM) is 92.2%; the viability, T/C (second compound 10 µM, first compound 0.949 µM) was 43.2%; the viability, T/C (second compound 10 µM, first compound 3 µM) was 27%.

On to `Nc1ncn(C2CC(O)C(CO)O2)c(=O)n1` (centres undefined), for which the viability, T/C reads like this: (compound 0.00316 µM) 97.1% and 72.6% and 93.8%; (compound 0.01 µM) 107% and 124% and 97%; (compound 0.0316 µM) 95.4% and 81.6% and 69.9%; (compound 0.1 µM) 86.8% and 94.5% and 63.9%; (compound 0.316 µM) 93.2% and 73.9% and 68.4%; (compound 1 µM) 101% and 80.6% and 66.2%. Also, the IC50 (curve of compound) is greater than 1000 nM.

With `CC1COCCN1c1cc(C2(S(C)(=N)=O)CC2)nc(-c2ccnc3[nH]ccc23)n1` (centres undefined), the viability, T/C is, setting by setting: (compound 0.0316 µM) 106% and 99.7% and 91.9%; (compound 0.1 µM) 85.4% and 106% and 103%; (compound 0.316 µM) 87.8% (2×) and 79.2%; (compound 1 µM) 77.5% and 84% and 73.8%; (compound 3.16 µM) 80.1% and 69.6% and 68.8%; (compound 10 µM) 59.5% and 70.1% and 51.9%. Also, the IC50 (curve of compound) is greater than 10000 nM.

With `NS(=O)(=O)OCC1CC(n2ccc3c(NC4CCc5ccccc54)ncnc32)CC1O` (centres undefined) + Cc1cncc(-c2nc(NCCc3c[nH]c4ccccc34)c3ncn(C(C)C)c3n2)c1, the IC50 runs as follows: under setting [1], greater than 10000 nM; under setting [2], greater than 10000 nM; under setting [3], greater than 10000 nM; under setting [4], greater than 10000 nM; under setting [5], 512 nM. Further, the viability, T/C under setting [6] is 129%; the viability, T/C under setting [7] is 140%; the viability, T/C under setting [8] was 145%; the viability, T/C under setting [9] is 86%; the viability, T/C under setting [10] was 76.5%; the viability, T/C under setting [11] is 71.8%. The viability, T/C is, setting by setting: under setting [12], 131%; under setting [13], 177%; under setting [14], 136%; under setting [15], 100%; under setting [16], 76.7%; under setting [17], 81%. For the same molecule, the viability, T/C by setting is: under setting [18], 143%; under setting [19], 166%; under setting [20], 154%; under setting [21], 76.3%; under setting [22], 75%; under setting [23], 79%. For the same molecule, the viability, T/C runs as follows: under setting [24], 185%; under setting [25], 168%; under setting [26], 158%; under setting [27], 71.2%; under setting [28], 63.3%; under setting [29], 66.1%. Further, the viability, T/C was 94.1% under setting [30]; 96.3% under setting [31]; 54.7% under setting [32]; 44.5% under setting [33]; 44.4% under setting [34]; 41.3% under setting [35].

For the molecule `O=C(C=Cc1cccc(S(=O)(=O)Nc2ccccc2)c1)NO` + Cc1cncc(-c2nc(NCCc3c[nH]c4ccccc34)c3ncn(C(C)C)c3n2)c1, the IC50 came to 1880 nM under setting [1]; 1390 nM under setting [2]; 2090 nM under setting [3]; 1460 nM under setting [4]; 210 nM under setting [5]. In addition, the viability, T/C is 97.2% under setting [6]; 93.9% under setting [7]; 83.2% under setting [8]; 68.3% under setting [9]; 35.5% under setting [10]; 16.9% under setting [11]. The viability, T/C is, setting by setting: under setting [12], 104%; under setting [13], 102%; under setting [14], 96.8%; under setting [15], 61.9%; under setting [16], 20.2%; under setting [17], 16.6%. The viability, T/C was 97.4% under setting [18]; 97.8% under setting [19]; 84.5% under setting [20]; 65.4% under setting [21]; 41.7% under setting [22]; 15.9% under setting [23]. For the same molecule, the viability, T/C reads like this: under setting [24], 107%; under setting [25], 115%; under setting [26], 97.7%; under setting [27], 57.5%; under setting [28], 33.7%; under setting [29], 16.6%. Besides, the viability, T/C is, setting by setting: under setting [30], 49.9%; under setting [31], 53.5%; under setting [32], 53.1%; under setting [33], 39.8%; under setting [34], 39.2%; under setting [35], 25.5%.
